In paper PMC12429841, “Monothiooxalamide–Benzothiazole Hybrids: Predictive Docking on HDAC6, Synthesis, Molecular Structure, and Antiproliferative Activity on Breast Cancer Cells” (International Journal of Molecular Sciences, 2025):

Legend:
MCF-7 cells [1] = assay: Antiproliferative activity, MTT assay, MCF-7; type: cell-based, human; details: for IC50: Homo sapiens, MCF7, MTT, mean ± SD of at least three independent experiments
Procedure: (§1) The antiproliferative effect of monothiooxalamides 1a–d and 2a–d was assessed in MCF-7 (human breast cancer cell line with estrogen, progesterone, and glucocorticoid receptors), MDA-MB-231 (triple-negative human breast cancer), MCF-10A (non-tumorigenic human mammary epithelial cell line), and NIH/3T3 (mouse fibroblast). The cytotoxicity is expressed as IC50 values in micromolar concentrations, Table 4. […] In contrast, the cytotoxic effect on triple-negative cells MDA-MB-231 was similar to that observed in MCF-10A. […] Nevertheless, it is worth considering that NIH/3T3 are mouse fibroblasts, while the other three cell lines are human cells; therefore, the physiological differences between both species could play an essential role in the exerted effect. Several studies have evaluated 2-aminobenzothiazole derivatives against various cell lines. The targets of this kind of compounds are wide, including HDAC6, tyrosine kinase receptors family (CSF1R kinase, EGFR kinase, VEGFR-2 kinase, FAK kinase), serine/threonine kinases, lysine-specific demethylase (LSD1), phosphoinositide 3-kinase (PI3K), topoisomerases (I and II), Heat shock protein (HSP90), p53, nuclear receptor binding set (NSD1), microsomal prostaglandin E synthase-1 (mPGES-1), and also as chelators of metal ions, which are necessaries for critical biological processes such as gene expression, oxygen transport, and cell respiration. In all cases, the IC50 values were reported in a wide range, from 1 nM to 50 µM. On the other hand, our research group reported a family of MTAs containing 2-aminopyridine, with an activity range of 0.19–18 µM against several human cancer cell lines (A2780-wt, A2780-cis-MSTO-211H, and HT-29). […] Whereas 1c could be a feasible candidate to obtain better results compared with 1a, 2a–c, which were highly cytotoxic to non-tumorigenic cells. As a perspective, the synergic activity of 1c, in combination with antioxidants like curcumin, resveratrol, and quercetin, could also be explored, with the aim to sensitize cancer cells against cytotoxic agents and diminish their toxicity in non-tumorigenic cells. In contrast, MTX, which is an antineoplastic drug, is widely used for many kinds of cancer treatments, including breast cancer. Their mechanism of action is related to the inhibition of dihydrofolate reductase (DHFR). […] Nevertheless, MTX exerted an undesirable effect on NIH/3T3 cells. Although the compounds were not better than MTX, their antiproliferative effect was similar to 2ABT, thioureas, 3-carboxy-coumarin sulfonamides, pyrimethamine conjugates, and N-hydroxycinnamide analogs. Highlighting its low toxicity to non-tumor cells, 1c might be a better option than methotrexate to reduce adverse side effects associated with chemotherapy.
(§2) MDA-MB-231 adenocarcinoma cell line was procured from ATCC (CRM-HTB-26TM). […] Cell culture was performed in the appropriate medium for each cell line (MCF-7, MDA-MB-231, MCF-10A, and NIH/3T3). MCF-7, MDA-MB-231, and NIH/3T3 cells were grown in Dulbecco’s modified Eagle Medium (DMEM) high-glucose with phenol red, supplemented with fetal bovine serum inactivated by heat (10%) (BioWest, Miami, FL, USA) and antibiotic (100 U/mL penicillin and […] streptomycin). MCF-10A were grown in DMEM-F12 medium, supplemented with 5% of horse serum inactivated by heat (Biowest, Miami, FL, USA), […] of insulin, 20 ng/mL of epidermal growth factor, 500 ng/mL hydrocortisone, and antibiotic (100 U/mL penicillin and […] streptomycin). All cell lines were incubated at 37 °C with 5% CO2 after reaching 80% confluence at 24 h. The cells were seeded in a 96-well cell culture plate (10,000 cells/well). After incubation, the cells were treated with compounds (1a–1d and 2a–2d) at varying concentrations (100, 50, 25, 12.5, and 6.25 µM) and then incubated for 42 h under standard conditions. […]

MDA-MB-231 cells [2] = assay: Antiproliferative activity, MTT assay, MDA-MB-231; type: cell-based; details: Homo sapiens, mean ± SD of at least three independent experiments
Procedure: as §1, §2

MCF-10A cells = assay: Antiproliferative activity, MTT assay, MCF-10A; type: cell-based; details: Homo sapiens, non-tumorigenic cells, mean ± SD
Procedure: as §1, §2

NIH/3T3 cells [3] = assay: Antiproliferative activity, MTT assay, NIH/3T3; type: cell-based; details: NIH3T3, mouse fibroblast, mean ± SD
Procedure: as §1
as §2, with “streptomycin).” for “streptomycin). All cell lines were incubated at 37 °C with 5% CO2 after reaching 80% confluence at 24 h. The cells were seeded in a 96-well cell culture plate (10,000 cells/well). After incubation, the cells were treated with compounds (1a–1d and 2a–2d) at varying concentrations (100, 50, 25, 12.5, and 6.25 µM) and then incubated for 42 h under standard conditions.”

MDA-MB-231 cells [4] = assay: Wound closure (cell migration) assay; type: cell-based, human; details: MDA-MB-231, treated at IC50 concentration; for wound closure rate: 0-48 h; for maximum wound closure: 48 h
Procedure: The triple-negative cancer, produced by MDA-MB-231 cells, is highly invasive and metastatic, capable of migrating to other tissues. […] The wound closure begins at 12 h, at this time, there is a significant difference between cells treated with compound 1c and MTX compared with non-treated cells. Nevertheless, the maximum effect is observed at 48 h, when wound closure is complete for non-treated cells. For cells treated with compound 1c, the maximum wound closure was 51%, while for the reference drug, MTX, it was 38% at 48 h. In both cases, there is a significant difference from the control, with wound closure rates of −2.0 ± 0.1 (R = 0.98), −1.0 ± 0.1 (R = 0.94), and −0.7 ± 0.1 (0.88) in %area/h for control, 1c, and MTX, respectively. The results confirmed the capability of 1c to prevent cell migration in MDA-MB-231 cells, similar to the reference drug MTX, and other reported BTs.
The wound closure assay was performed according to the reported methods on MDA-MB-231 cell line. For this purpose, cells (2 × 10^5) were seeded in complete medium on a 24-well plate and incubated for 24 h under standard conditions. After that, the wound gap was made by scratching the cell monolayer with a 200 µL pipette tip. Cell debris and exhausted medium were discarded, washed with PBS, and the medium was replaced. […] The wound closure was monitored by microscopy at 12, 24, and 48 h, and the wound area was measured in duplicate in three independent experiments using ImageJ (1.54k) software. The results were expressed as a percentage of the control (cell culture medium with 0.1% DMSO).

MCF-7 cells [5] = assay: Annexin V apoptosis induction assay, MCF-7; type: cell-based, human; details: MCF-7, IC50 concentration, 48 h
Text: (§3) Apoptosis induction is one of the most common mechanisms of cell death exerted by antineoplastic drugs. This is because cancer cells can evade this cell death mechanism, allowing malignant cells to survive and leading to tumor progression. Apoptosis involves several physiological cell modifications, including the destabilization of the phospholipid bilayer and the subsequent exposure of phosphatidylserine. This phospholipid can be easily recognized by annexin V, a protein that is useful for identifying apoptotic cells. Therefore, apoptosis was determined for both breast cancer human cell lines, MCF-7 and MDA-MB-231, and the NIH/3T3 non-tumoral cell line. […] Regarding non-malignant fibroblast cells (NIH/3T3), a slight decrease in live cells was observed only for compound 1c (60%) compared to the control (81%) and MTX (72%), as shown in Figure 12.
(§4) The annexin V cytometry assay was performed on malignant cells (MCF-7 and MDA-MB-231) and non-malignant cells (NIH/3T3) using the Annexin V-FITC Apoptosis Detection kit (Santa Cruz Biotechnology). The corresponding cells were seeded in a 12-well plate as previously described and incubated under standard conditions (1.5 × 10^5 cells/well). After 24 h of incubation, the exhausted medium was replaced, and cells were treated at the IC50 concentration for compound 1c and MTX. […]

MDA-MB-231 cells [6] = assay: Annexin V apoptosis induction assay, MDA-MB-231; type: cell-based, human; details: MDA-MB-231, IC50 concentration, 48 h
Text: as §3
The annexin V cytometry assay was performed on malignant cells (MCF-7 and MDA-MB-231) and non-malignant cells (NIH/3T3) using the Annexin V-FITC Apoptosis Detection kit (Santa Cruz Biotechnology). The corresponding cells were seeded in a 12-well plate as previously described and incubated under standard conditions (1.5 × 10^5 cells/well). After 24 h of incubation, the exhausted medium was replaced, and cells were treated at the IC50 concentration for compound 1c and MTX. After 48 h, the exhausted medium was recovered for cytometric measurements, and the cells were trypsinized, inactivated with DMEM, centrifuged, washed with PBS and centrifuged (1500 rpm, 5 min, 4 °C). The PBS was removed, and the remainder was drained on gauze. The formed pellet was shaken with 300 µL of the buffer from the flow cytometry kit (Miltenyi Biotec, Bergisch Gladbach, Germany), which had previously been prepared at a concentration of 1%. The sample was left to incubate for 15 min at room temperature, protected from light, and then 100 µL aliquots were taken to the flow cytometry equipment (BD FACSAria Fusion, Franklin Lakes, NJ, USA). Five microliters of annexin and two microliters of propidium iodide (100 µg/mL) were added to the reaction with the cells. […]

NIH/3T3 cells [7] = assay: Annexin V apoptosis induction assay, NIH/3T3; type: cell-based, mouse; details: NIH/3T3, IC50 concentration, 48 h; control 81%
Text: as §3, §4

Row | Structure (SMILES) | IC50 (MCF-7 cells [1]) [µM] | IC50 (MDA-MB-231 cells [2]) [µM] | IC50 (MCF-10A cells) [µM] | IC50 (NIH/3T3 cells [3]) [µM] | selectivity toward malignant cells, fold more active in MCF-7 than in MCF-10A (MCF-7 cells [1]; MCF-7 vs MCF-10A) [fold] | fold more active on MCF-7 cells than on MDA-MB-231 cells (MCF-7 cells [1]; MCF-7 vs MDA-MB-231) [fold] | wound closure rate (MDA-MB-231 cells [4]) [%area/h] | maximum wound closure (MDA-MB-231 cells [4]) [%] | late apoptosis cell population (MCF-7 cells [5]) | effect on cell viability (MDA-MB-231 cells [6]) | live cells (NIH/3T3 cells [7]) [%] | percentage of late apoptotic cells (MDA-MB-231 cells [6]; non-treated cells 14%) [%]
1 | O=C(Nc1nc2ccccc2s1)C(=S)NCc1ccccc1 [1a, N-(benzo[d]thiazol-2-yl)-2-(benzylamino)-2-thioxoacetamide] | 95 ± 13 | 72 ± 7 | 44 ± 6 | 29 ± 6 | – | – | – | – | – | – | – | –
2 | COc1ccccc1CNC(=S)C(=O)Nc1nc2ccccc2s1 [1b, N-(benzo[d]thiazol-2-yl)-2-((2-methoxybenzyl)amino)-2-thioxoacetamide] | > 100 | > 100 | – | – | – | – | – | – | – | – | – | –
3 | COc1ccc(CNC(=S)C(=O)Nc2nc3ccccc3s2)cc1 [1c, N-(benzo[d]thiazol-2-yl)-2-((4-methoxybenzyl)amino)-2-thioxoacetamide] | 32 ± 5 | 52 ± 8 | 55 ± 6 | 41 ± 5 | 1.7 | 1.6 | −1.0 ± 0.1 | 51 | significant increase | did not show a significant effect | 60 | –
4 | O=C(Nc1nc2ccccc2s1)C(=S)NCCc1ccccc1 [1d, N-(benzo[d]thiazol-2-yl)-2-(phenethylamino)-2-thioxoacetamide] | > 100 | > 100 | – | – | – | – | – | – | – | – | – | –
5 | Cc1ccc2nc(NC(=O)C(=S)NCc3ccccc3)sc2c1 [2a, 2-(benzylamino)-N-(6-methylbenzo[d]thiazol-2-yl)-2-thioxoacetamide] | 72 ± 9 | > 100 | 43 ± 6 | 22 ± 4 | – | – | – | – | – | – | – | –
6 | COc1ccccc1CNC(=S)C(=O)Nc1nc2ccc(C)cc2s1 [2b, 2-((2-methoxybenzyl)amino)-N-(6-methylbenzo[d]thiazol-2-yl)-2-thioxoacetamide] | > 100 | > 100 | 42 ± 5 | – | – | – | – | – | – | – | – | –
7 | COc1ccc(CNC(=S)C(=O)Nc2nc3ccc(C)cc3s2)cc1 [2c, 2-((4-methoxybenzyl)amino)-N-(6-methylbenzo[d]thiazol-2-yl)-2-thioxoacetamide] | 88 ± 6 | > 100 | 74 ± 12 | 31 ± 6 | – | – | – | – | – | – | – | –
8 | Cc1ccc2nc(NC(=O)C(=S)NCCc3ccccc3)sc2c1 [2d, N-(6-methylbenzo[d]thiazol-2-yl)-2-(phenethylamino)-2-thioxoacetamide] | > 100 | > 100 | – | – | – | – | – | – | – | – | – | –
9 | CN(Cc1cnc2nc(N)nc(N)c2n1)c1ccc(C(=O)N[C@@H](CCC(=O)O)C(=O)O)cc1 [MTX, methotrexate, reference compound] | 0.8 ± 0.1 | 28 ± 3 | 14 ± 3 | 26 ± 5 | – | – | −0.7 ± 0.1 | 38 | significant increase | did not show a significant effect | 72 | 9
